US20230172923A1, “METHODS OF TREATING CYTOKINE-RELATED ADVERSE EVENTS” (BRISTOL-MYERS SQUIBB COMPANY, priority 2020, published 2023)

Experiments:
Assay type in all cases: cell-based, human
[1] = test system: NCI-H929 cells; experiment: CC-93269 mediated cytotoxicity assay with chronically stimulated T-cells, NCI-H929 target cells (IncuCyte); details: anti-CD3/CD28 7 days with 100 nM pomalidomide, 10 nM iberdomide or 1 nM CC-92480; CC-93269 47 pM; E:T 1:4
Protocol: (§1) Cell growth kinetics of A) NCI-H929 and B) OPM-2 cells in CC-93269 (47 pM) cytotoxicity assays on the IncuCyte® S3 Live-Cell Analysis System. Healthy donor T-cells were used as effector cells with or without chronic stimulation with anti-CD3/CD28 (7 days) in the presence of DMSO or CM agents (100 nM Pomalidomide, 10 nM CC-220 or 1 nM CC-92480). T-cells and NCI-H929 cells were co-cultured at E:T ratios of 1:4 (NCI-H929) or 1:2 (OPM-2). […] In contrast, prior exposure to CM agents prevented functional TBMS cell exhaustion and CC-93269 activity was similar or better to those observed with freshly thawed T-cells. Values shown represent the mean ± standard deviation of AUC values of 2-3 replicates from the same experiment.
(§2) To evaluate the effects of Cereblon modulating (CM) agents on T-cell function after chronic stimulation (i.e. mimicking T cell exhaustion), CD3+ enriched healthy donor T-cells were stimulated with anti-CD3/CD28 in the presence of DMSO (control), 100 nM pomalidomide, 10 nM iberdomide (CC-220) or 1 nM Compound 1 (CC-92480) for 7 days. Prolonged and repetitive anti-CD3/CD28 stimulation of T-cells results in functional T-cell exhaustion in vitro.
(§3) The chronically stimulated T-cells were then used in CC-93269 mediated cytotoxicity assays with NCI-H929 or OPM-2 multiple myeloma (MM) target cells. The T-cells were washed to remove compounds, and mixed with fluorescently labelled MM cell lines (NCI-H929, OPM-2) at optimized effector-to-target (E:T) ratios (1:2 or 1:4) in the presence of fixed concentrations of CC-93269 (47 pM). Freshly thawed T-cells (i.e. non-exhausted T-cells) from the same donor were used as control effector cells. In this experimental cytotoxicity assay setup, the number of target cells was continuously monitored using the IncuCyte® S3 Live-Cell Analysis System for a minimum of 10 days. Cell culture supernatants were taken from wells from subsequent CC-93269 mediated cytotoxicity assays at 3 days after mixing with MM target cells. CD3+ T cells from 2 or 3 independent healthy donors were tested for each MM cell line.

[2] = test system: OPM-2 cells; experiment: CC-93269 mediated cytotoxicity assay with chronically stimulated T-cells, OPM-2 target cells (IncuCyte); details: anti-CD3/CD28 7 days with 100 nM pomalidomide, 10 nM iberdomide or 1 nM CC-92480; CC-93269 47 pM; E:T 1:2
Protocol: as §1, §2, §3

[3] = test system: IL-6; experiment: LPS-induced IL-6 secretion from isolated monocytes (MSD); details: overnight (~17 hours) 1000 nM lenalidomide, 100 nM pomalidomide, 10 nM iberdomide or 1 nM Compound 1; LPS 4 hours
Protocol: Monocytes from healthy volunteers were seeded at a concentration of 1×10^6 cells/ml and treated with the indicated concentration of IMiD/CELMoD agents overnight (~17 hours). The next morning, the monocytes were incubated with the indicated concentration of LPS for 4 hours, before IL-6 levels in the supernatant were assessed using an MSD assay.
eripheral blood mononuclear cells (PBMCs) were isolated from the blood of four healthy human donors by Ficoll cell separation, and then monocytes were isolated from these PBMCs by negative selection. The enriched monocytes were seeded at a concentration of 1×10^6 cells/ml and incubated overnight (~17 hours) with 1000 nM lenalidomide, 100 nM pomalidomide, 10 nM iberdomide or 1 nM Compound 1, or control DMSO (0.001%), before stimulation with various concentrations of LPS for IL-6 secretion.
After 4 hours, the cell culture was spun down at 300 g for 5 minutes to remove cells, and the supernatant was subjected to Meso Scale Discovery (MSD) analysis to quantify secreted IL-6.

[4] = test system: TNF-alpha; experiment: LPS-induced TNF-alpha secretion from PBMCs, overnight pre-treatment (MSD); details: overnight 1000 nM lenalidomide, 100 nM pomalidomide, 10 nM iberdomide or 1 nM Compound 1; LPS 24 hours
Protocol: (§4) Fresh PBMCs isolated from healthy volunteers were seeded at a concentration of 1×10^6 cells/ml and treated with the indicated concentration of IMiD drugs/CELMoD agents or DMSO overnight before stimulation with the indicated concentration of LPS. After 24 hours, the cell culture media was collected and IL-6, TNF-alpha and IL1-beta levels in the supernatant were assessed using an MSD assay. ULOQ = Upper limit of quantification.
(§5) Fresh peripheral blood mononuclear cells (PBMCs) were isolated from the blood (buffy coat) of healthy human volunteers by Ficoll based cell separation. The isolated PBMCs were seeded at a concentration of 1×10^6 cells/ml and treated with 1000 nM lenalidomide, 100 nM pomalidomide, 10 nM iberdomide, 1 nM Compound 1 (CC-92480) or control DMSO, overnight (~17 hours). The next morning, the PBMCs were stimulated with various concentrations of LPS (Lipopolysaccharides from Escherichia coli O111:B4).
(§6) After 24 hours, the cell culture media was collected from the control and stimulated cells, spun down at 300 g for 5 minutes to remove cells and the supernatant was subjected to cytokine analysis to quantify secreted levels of IL-6, TNF-alpha (TNF-α) and IL1-beta (IL-1β) using an MSD assay (see e.g. FIGS. 8A-C).

[5] = test system: IL-6; experiment: LPS-induced IL-6 secretion from PBMCs, overnight pre-treatment (MSD); details: overnight 1000 nM lenalidomide, 100 nM pomalidomide, 10 nM iberdomide or 1 nM Compound 1; LPS 24 hours
Protocol: as §4, §5, §6

[6] = test system: IL1-beta; experiment: LPS-induced IL1-beta secretion from PBMCs, overnight pre-treatment (MSD); details: overnight 1000 nM lenalidomide, 100 nM pomalidomide, 10 nM iberdomide or 1 nM Compound 1; LPS 24 hours
Protocol: as §4, §5, §6

[7] = test system: GM-CSF; experiment: LPS-stimulated PBMC cytokine production, multiplex cytokine analysis: GM-CSF; details: Homo sapiens, PBMC, PBMC 2×10^6 cells/ml, compound 1 hour, then 1 ng/ml LPS 18 hours
Protocol: (§7) Peripheral blood mononuclear cells (PBMCs) were isolated from the blood of healthy human donors by Ficoll cell separation. […] Supernatant samples were subjected to multiplex cytokine analysis (Luminex IS100 instrument) to quantify secreted levels of IL-6, IL-8, IL1-beta (IL-1β), GM-CSF, MDC, MIP-1alpha (MIP-1α), MIP-1beta (MIP-1β) and TNF-alpha (TNF-α) (see e.g. FIGS. 7A-C). IC50 (half maximal inhibitory concentration) values were calculated to measure the potency of each IMiD compound in inhibiting LPS-stimulated secretion of each cytokine (see Table 25).

[8] = test system: IL-1β; experiment: LPS-stimulated PBMC cytokine production, multiplex cytokine analysis: IL-1β; details: Homo sapiens, PBMC, PBMC 2×10^6 cells/ml, compound 1 hour, then 1 ng/ml LPS 18 hours
Protocol: as §7

| IC50 [7] | IC50 [8] | SMILES | cytolytic function of chronically stimulated T-cells in CC-93269-directed killing of NCI-H929 cells [1] | cytolytic function of chronically stimulated T-cells in CC-93269-directed killing of OPM-2 cells [2] | LPS-induced IL-6 secretion from monocytes [3] | LPS-induced secretion of TNF-α from PBMCs [4] | LPS-induced secretion of IL-6 from PBMCs [5] | LPS-induced secretion of IL-1β from PBMCs [6] |
| --- | --- | --- | --- | --- | --- | --- | --- | --- |
|  |  | N#Cc1ccc(N2CCN(Cc3ccc(COc4cccc5c4CN(C4CCC(=O)NC4=O)C5=O)cc3)CC2)c(F)c1 (stereo not drawn) [Compound 1, 4-(4-(4-(((2-(2,6-dioxopiperidin-3-yl)-1-oxoisoindolin-4-yl)oxy)methyl)benzyl)piperazin-l-yl)-3-fluorobenzonitrile] | beneficial effects on the cytolytic function of T-cells | beneficial effects on the cytolytic function of T-cells | diminished | reduces | reduces | reduces |
| 0.0022 µM | 0.00046 µM | O=C1CC[C@H](N2Cc3c(OCc4ccc(CN5CCOCC5)cc4)cccc3C2=O)C(=O)N1 [Iberdomide, (S)-3-(4-((4-(morpholinomethyl)benzyl)oxy)-1-oxoisoindolin-2-yl)piperidine-2,6-dione] | beneficial effects on the cytolytic function of T-cells | beneficial effects on the cytolytic function of T-cells | diminished | reduces | reduces | reduces |
| > 10 µM | 0.39 µM | Nc1cccc2c1CN(C1CCC(=O)NC1=O)C2=O (stereo not shown) [Lenalidomide, 3-(4-amino-1-oxo-2,3-dihydro-1H-isoindol-2-yl) piperidine-2,6-dione] |  |  | diminished | reduces | reduces | reduces |
| 1.5 µM | 0.047 µM | Nc1cccc2c1C(=O)N(C1CCC(=O)NC1=O)C2=O (stereo not shown) [Pomalidomide, 4-amino-2-(2,6-dioxopiperidine-3-yl)isoindoline-1,3-dione] | beneficial effects on the cytolytic function of T-cells | beneficial effects on the cytolytic function of T-cells | diminished | reduces | reduces | reduces |
